Data taken from patent US7375092B2, “Lunasin peptides” (Regents of the University of California, priority 1997, dated 2008).

B1: large subunit peptide: 77 amino acid (8 kDa) large subunit (alisin) of Gm2S-1, residues 82-158 of SEQ ID NO:2 (protein)
chain: EGKDEDEEEEGHMQKCCTEMSELRSPKCQCKALQKIMENQSEELEEKQKKKMEKELINLATMCRFGPMIQCDLSSDD

Key:
mammalian cells = experiment: Mitotic disruption by peptide panel in mammalian studies; assay type: cell-based; details: deletion mutant and synthetic fusion peptides
Excerpt: Similar mitotic disruption is observed using a large panel of lunasin and alisin deletion mutant peptides (lunasin-del-n and alisin-del-n) and lunasin/alisin-like synthetic peptides (Gm2S-1-syn-n). Exemplary active lunasin-del peptides in these mammalian studies include (again using N→C nomenclature convention): • lunasin-del-1: MRG—residues 57-64 of SEQ ID NO:2 fusion protein • lunasin-del-2: α-tubulin—residues 54-64 of SEQ ID NO:2 fusion protein • lunasin-del-3: β-tubulin—residues 48-63 of SEQ ID NO:2 fusion protein • lunasin-del-4: MAP2 —residues 26-64 of SEQ ID NO:2 fusion protein • lunasin-del-5: Mapmodulin—residues 57-64 of SEQ ID NO:2 fusion protein • lunasin-del-6: GFP—residues 54-64 of SEQ ID NO:2 fusion protein • lunasin-del-7: MAP4—residues 44-63 of SEQ ID NO:2 fusion protein • lunasin-del-8: FLAGG—residues 30-64 of SEQ ID NO:2 fusion protein • lunasin-del-9: CYCLIN A—residues 57-64 of SEQ ID NO:2 fusion protein • lunasin-del-10: CYCLIN B1—residues 54-64 of SEQ ID NO:2 fusion protein • lunasin-del-11: CYCLIN B2—residues 40-63 of SEQ ID NO:2 fusion protein • lunasin-del-12: CYCLIN B3—residues 34-64 of SEQ ID NO:2 fusion protein • lunasin-del-13: SH2—octa-aspartate fusion protein • lunasin-del-14: SH3—octa-aspartate fusion protein • lunasin-del-15: SEQ ID NO:2, residues 48-55—MRG-octa-aspartate fusion protein • lunasin-del-16: SEQ ID NO:2, residues 48-55—SEQ ID NO:2, residues 48-55—octa-aspartate fusion protein • lunasin-del-17: MRG-tetrta-aspartate-tetra glutamate fusion protein • lunasin-del-18: SEQ ID NO:2, residues 48-55-octa-glutamate fusion protein • lunasin-del-19: SEQ ID NO:2, residues 1-21-MRG-deca-glutamate fusion protein • lunasin-del-20: SEQ ID NO:2, residues 48-55—SEQ ID NO:2, residues 48-55—tetra-aspartate-tetra glutamate fusion protein
Alternatively, the peptides are introduced indirectly by expression within the targeted cell. Such expression may be effected by transciently or by upregulation of a stably introduced peptide-encoding gene.

[1] = tested on: cotyledon and endosperm parynchematous cells; experiment: Plant transformation: mitotic disruption in developing seeds; assay type: in vivo; details: deletion mutant and synthetic fusion peptides
Excerpt: Cereal endosperm and legume cotyledon make up at least 85% of the seed weight and that seed size is genetically correlated to crop yield by at least 80%. […] To accomplish this, the 5′ regulatory regions of soybean conglycinin gene (a 170 bp DNA sequence element that is 200 nucleotides upstream of the transcription start site conferring cotyledon-specific expression (Chen et al., 1988, EMBO J 7:297) and rice glutelin gene (a 121 bp DNA sequence element that is 437/317 nucleotide upstream of the transcription start site conferring endosperm-specific expression (Yoshihara and Takaiwa, 1996, Plant Cell Physiol 37:107) are inserted into the −90 position of the CaMV 35S promoter which are then fused to the DNA fragments encoding the in-frame translation of lunasin and lunasin-del peptides. The DNA constructs are ligated to the binary vector, pKYLX71 (Lloyd et al., 1992, Science 258:1773) for Agrobacterium transformation and to pGEM-3Zf(+) vector (Promega) for biolistic transformation (Cho et al., 1995, Plant Mol Biol Rept 13:255). Agrobacterium-mediated transformation using the cotyledon-specific DNA constructs is utilized for most dicots, i.e. legumes (soybean, peas, peanuts and kidney beans), Arabidopsis thaliana and tobacco. For monocots like the cereal grain crops, wheat, rice, barley, rye and corn, the biolistic method of transformation is utilized using the endosperm-specific DNA constructs. The expression of the lunasin peptide in the developing seeds of all these plant species are monitored by immunolocalization using antibodies derived specifically to the carboxyl end epitope of the lunasin peptide.

DH5 E. coli cells = experiment: Expression of Gm2S-1 peptides in bacteria: disruption of bacterial cell division (filamentation); assay type: cell-based; details: basal expression from pFLAG-1 in DH5 E. coli cells
Excerpt: We sought to produce purified Gm2S-1-derived peptides, including lunasin and alisin peptides, for allergenicity tests using bacterial expression vectors. Initially, PCR amplified fragments that encode lunasin and a lunasin deletion (lunasin-del) mutant (with the 9 aspartic acid deleted from the carboxyl end) were first cloned into pGEM-T (Promega) PCR cloning vector, then cut with EcoR1 and HindIII to release lunasin and lunasin-del gene fragment which were then subcloned into pFLAG-1 bacterial expression vector (Kodak/IBI). Lunasin and lunasin-del pFLAG constructs were used to transform competent DH5 E. coli cells using standard heat shock protocol.
Similar mitotic disruption is observed using a large panel of lunasin and alisin deletion mutant peptides (lunasin-del-n and alisin-del-n) and lunasin/alisin-like synthetic peptides (Gm2S-1-syn-n). […]

| Molecule | mitotic disruption, active peptides in mammalian studies (mammalian cells) | mitotic disruption, active peptides in plant transformation studies [1] | formation of elongated and non-septated bacterial filaments (DH5 E. coli cells) |
| --- | --- | --- | --- |
| lunasin-del-15: SEQ ID NO:2, residues 48-55—MRG-octa-aspartate fusion protein (MEKIQGRG; C-terminal MRG and octa-aspartate) | active | active | – |
| lunasin-del-18: SEQ ID NO:2, residues 48-55—octa-glutamate fusion protein (MEKIQGRG; C-terminal octa-glutamate) | active | active | – |
| lunasin-del-19: SEQ ID NO:2, residues 1-21—MRG-deca-glutamate fusion protein (MTKFTILLISLLFCIAHTCSA; C-terminal MRG and deca-glutamate) | active | active | – |
| B1 | – | – | not detected |
